Measurements taken from patent US20260158011A1 (Achieve Life Sciences, Inc., priority 2023, published 2026).
Where two headings read alike, the source gives them in different places.

Columns and labels:
[1] = target: neuronal alpha4, beta2 (α4β2) receptors (Homo sapiens, UniProt P17787+P43681); conditions: background studies; cited from earlier work
adult e-cigarette users = conditions: for Saliva Cotinine Actual Value, Mean / Saliva Cotinine Actual Value, Median / Saliva Cotinine Change from Baseline, Mean / Saliva Cotinine Change from Baseline, Median: 12 Weeks arm, All Randomized Set; for Saliva Cotinine Change from Baseline, LS Means / Saliva Cotinine Change from Baseline, LS Means Difference from Placebo: repeated-measures ANOVA
Excerpt: A second measurement consisted of biochemically verified continuous vaping abstinence at any time during treatment, with vaping abstinence at Week 3-6 or Week 6-9 for of cytisinicline treatment vs placebo. 7-day point prevalence rates were compared for vaping abstinence (Week 2 to 12) (FIG. 62). An additional measurement included reduction in daily vaping as measured by cotinine, where cytisinicline treatment vs placebo for a reduction in nicotine vaping using weekly quantitative cotinine levels from Week 2 to Week 12. Safety was assessed by adverse effects and serious adverse effects, considering number, severity, and attribution to study drug.
Cotinine: The data were analyzed by visit and also using a repeated measures model. […] Cotinine values less than 1 were converted to 1 due to asymmetry.

[2] = system: adults smoking 10+ cigarettes daily; conditions: for Quit Rate, End-of-Treatment Week 4 / Quit Rate, Continuous Abstinence Weeks 5 to 8: CO<10 ppm confirmed; for Reduction in cigarettes smoked / Reduction in CO: 25 days; for Drug-placebo difference in quit rate: cytisinicline 3.0 mg TID; for Reduction in CO: expired CO; for Quit Rate, Continuous Abstinence Weeks 5 to 8: off treatment
Procedure: This was a six-arm, multi-center, double-blind, randomized, placebo-controlled study conducted in male or female adults ≥18 years of age, smoking 10+ cigarettes daily, and willing to set a quit date that is 5-7 days after randomization. […] The study also evaluated the effectiveness of a simplified TID dosing schedule for 1.5 mg and an increased dose of 3.0 mg (using both the commercial titration (COM) and simplified TID dosing schedules).
Study treatment started the day after randomization such that study treatment was initiated prior to the quit date, as shown in FIG. 3.
The primary efficacy endpoint for this study was the percent reduction in the number of cigarettes smoked during treatment, which was calculated as follows:
where N=total number of cigarettes smoked, B=number of cigarettes smoked at baseline and D=number of days.
The primary outcome (Cigarette Score) and the main secondary abstinence outcomes were subjected to sensitivity analyses. The main secondary abstinence outcomes were the initial quit rate at Week 4 and continued 4-week abstinence through Week 5 to Week 8, confirmed by expired carbon monoxide (CO) of <10 ppm designated as Cess/W5-8/CO Success.
Carbon monoxide (CO) levels (ppm) were assessed during the study at screening, baseline, end of study treatment intervention (Week 4), and weekly through Week 8 (FIG. 9).
Serum cotinine levels were exploratory and assessed only at screening, Week 4, and Week 8. Reported results for cotinine of <10 ng/mL were transformed to 0 ng/mL prior to statistical analysis.
The primary outcome was based on the number of cigarettes smoked on each day from a diary. The Cigarette Score used the diary data for the planned 25 days while on study treatment. Presented are sensitivity analyses for the comparison of the 3.0 mg TID arm and the pooled placebo arm related to variations on the primary analysis of Cigarette Score. The alternative definition of the Cigarette Score featured cigarettes recorded in the diary after the planned quit period of Days 5-7, that is, from Day 8 onward, instead of from Day 1 onward.
Another alterative analysis was based on re-analyses of the primary Cigarette Score and the above alternative Cigarette Score, with a weight related to the standard error of the mean number of cigarettes estimated from the diary entries. The weight used for each subject was 1/(SE)^2, where SE is the standard error of the mean estimate, and this type of weighting, referred to as inverse variance weighting, is used commonly. This weighting gives greater weight to means that are estimated with a smaller SE. A small modification to this definition of weight was necessary, however. In computing 1/(SE)^2, a specific rule was used when SE=0, specifically when all diary entry values were equal. In these cases, the SE was computed as if one and only one of the recorded values was larger by one. It can be shown that when this modification to the data is made SE=1/N, where N is the number of the subjects daily (days) entries.

[3] = cytisine 1.5 mg, downward titration (COM) schedule
[4] = cytisine 3.0 mg TID, listed as CYT
[5] = cytisine 3.0 mg TID, listed as Cytisinicline
[6] = cytisine 3.0 mg, downward titration (COM) schedule

neuronal alpha4, beta2 (α4β2) receptors, sequence (P43681 29-627 limits assumed): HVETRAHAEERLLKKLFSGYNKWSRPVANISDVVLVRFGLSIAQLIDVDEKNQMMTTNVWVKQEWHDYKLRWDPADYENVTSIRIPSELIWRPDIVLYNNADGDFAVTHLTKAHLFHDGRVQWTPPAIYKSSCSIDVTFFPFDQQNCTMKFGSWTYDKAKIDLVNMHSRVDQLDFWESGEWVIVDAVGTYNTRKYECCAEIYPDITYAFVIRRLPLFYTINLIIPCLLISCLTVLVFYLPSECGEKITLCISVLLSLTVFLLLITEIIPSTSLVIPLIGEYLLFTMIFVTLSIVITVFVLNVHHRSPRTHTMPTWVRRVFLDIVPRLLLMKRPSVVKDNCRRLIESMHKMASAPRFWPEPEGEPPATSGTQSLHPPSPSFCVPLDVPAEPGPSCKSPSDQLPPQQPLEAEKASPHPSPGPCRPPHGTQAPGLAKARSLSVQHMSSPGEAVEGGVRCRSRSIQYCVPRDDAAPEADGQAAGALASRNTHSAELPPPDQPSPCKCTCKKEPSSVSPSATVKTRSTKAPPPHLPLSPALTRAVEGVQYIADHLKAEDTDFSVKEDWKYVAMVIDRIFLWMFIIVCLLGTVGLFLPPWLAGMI
neuronal alpha4, beta2 (α4β2) receptors, sequence (P17787 26-502): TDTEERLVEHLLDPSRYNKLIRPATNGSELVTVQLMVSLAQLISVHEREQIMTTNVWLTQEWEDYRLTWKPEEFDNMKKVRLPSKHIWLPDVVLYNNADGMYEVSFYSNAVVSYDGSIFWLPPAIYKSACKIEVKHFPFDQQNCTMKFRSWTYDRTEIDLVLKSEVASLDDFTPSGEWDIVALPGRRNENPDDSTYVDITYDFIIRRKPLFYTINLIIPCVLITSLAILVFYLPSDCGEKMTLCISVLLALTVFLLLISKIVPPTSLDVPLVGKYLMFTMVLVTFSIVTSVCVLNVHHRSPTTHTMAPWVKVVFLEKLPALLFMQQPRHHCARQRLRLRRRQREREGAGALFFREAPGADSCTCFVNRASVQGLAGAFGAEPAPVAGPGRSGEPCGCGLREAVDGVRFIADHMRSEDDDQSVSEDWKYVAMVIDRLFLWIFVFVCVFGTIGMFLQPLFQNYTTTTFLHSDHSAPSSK

O=c1cccc2n1C[C@@H]1CNC[C@H]2C1 [cytisine, (−)-Cytisine]
Binding to α4β2 receptors [1]: bind strongly and preferentially
Saliva Cotinine Actual Value, Mean (adult e-cigarette users; Week 2): 133.598 ng/mL
Saliva Cotinine Actual Value, Median (adult e-cigarette users; Week 2): 70.200 ng/mL
Saliva Cotinine Change from Baseline, Mean (adult e-cigarette users; Week 2): -185.522 ng/mL
Saliva Cotinine Change from Baseline, Median (adult e-cigarette users; Week 2): -182.015 ng/mL
Saliva Cotinine Change from Baseline, LS Means (adult e-cigarette users; Week 2): -181.306 ng/mL
Saliva Cotinine Change from Baseline, LS Means Difference from Placebo (adult e-cigarette users; Week 2): -32.506 ng/mL
Saliva Cotinine Actual Value, Mean (adult e-cigarette users; Week 3): 112.224 ng/mL
Saliva Cotinine Actual Value, Median (adult e-cigarette users; Week 3): 2.495 ng/mL
Saliva Cotinine Change from Baseline, Mean (adult e-cigarette users; Week 3): -210.563 ng/mL
Saliva Cotinine Change from Baseline, Median (adult e-cigarette users; Week 3): -210.500 ng/mL
Saliva Cotinine Change from Baseline, LS Means (adult e-cigarette users; Week 3): -205.329 ng/mL
Saliva Cotinine Change from Baseline, LS Means Difference from Placebo (adult e-cigarette users; Week 3): -72.832 ng/mL
Saliva Cotinine Actual Value, Mean (adult e-cigarette users; Week 4): 112.055 ng/mL
Saliva Cotinine Actual Value, Median (adult e-cigarette users; Week 4): 1.710 ng/mL
Saliva Cotinine Change from Baseline, Mean (adult e-cigarette users; Week 4): -206.833 ng/mL
Saliva Cotinine Change from Baseline, Median (adult e-cigarette users; Week 4): -203.500 ng/mL
Saliva Cotinine Change from Baseline, LS Means (adult e-cigarette users; Week 4): -202.672 ng/mL
Saliva Cotinine Change from Baseline, LS Means Difference from Placebo (adult e-cigarette users; Week 4): -74.090 ng/mL
Saliva Cotinine Actual Value, Mean (adult e-cigarette users; Week 5): 111.201 ng/mL
Saliva Cotinine Actual Value, Median (adult e-cigarette users; Week 5): 1.565 ng/mL
Saliva Cotinine Change from Baseline, Mean (adult e-cigarette users; Week 5): -204.721 ng/mL
Saliva Cotinine Change from Baseline, Median (adult e-cigarette users; Week 5): -187.000 ng/mL
Saliva Cotinine Change from Baseline, LS Means (adult e-cigarette users; Week 5): -201.526 ng/mL
Saliva Cotinine Change from Baseline, LS Means Difference from Placebo (adult e-cigarette users; Week 5): -83.364 ng/mL
Saliva Cotinine Actual Value, Mean (adult e-cigarette users; Week 6): 123.705 ng/mL
Saliva Cotinine Actual Value, Median (adult e-cigarette users; Week 6): 1.480 ng/mL
Saliva Cotinine Change from Baseline, Mean (adult e-cigarette users; Week 6): -199.608 ng/mL
Saliva Cotinine Change from Baseline, Median (adult e-cigarette users; Week 6): -168.500 ng/mL
Saliva Cotinine Change from Baseline, LS Means (adult e-cigarette users; Week 6): -196.960 ng/mL
Saliva Cotinine Change from Baseline, LS Means Difference from Placebo (adult e-cigarette users; Week 6): -79.952 ng/mL
Saliva Cotinine Actual Value, Mean (adult e-cigarette users; Week 7): 133.054 ng/mL
Saliva Cotinine Actual Value, Median (adult e-cigarette users; Week 7): 0 ng/mL
Saliva Cotinine Change from Baseline, Mean (adult e-cigarette users; Week 7): -181.605 ng/mL
Saliva Cotinine Change from Baseline, Median (adult e-cigarette users; Week 7): -184.000 ng/mL
Saliva Cotinine Change from Baseline, LS Means (adult e-cigarette users; Week 7): -179.597 ng/mL
Saliva Cotinine Change from Baseline, LS Means Difference from Placebo (adult e-cigarette users; Week 7): -49.309 ng/mL
Saliva Cotinine Actual Value, Mean (adult e-cigarette users; Week 8): 125.966 ng/mL
Saliva Cotinine Actual Value, Median (adult e-cigarette users; Week 8): 0 ng/mL
Saliva Cotinine Change from Baseline, Mean (adult e-cigarette users; Week 8): -188.539 ng/mL
Saliva Cotinine Change from Baseline, Median (adult e-cigarette users; Week 8): -194.655 ng/mL
Saliva Cotinine Change from Baseline, LS Means (adult e-cigarette users; Week 8): -192.048 ng/mL
Saliva Cotinine Change from Baseline, LS Means Difference from Placebo (adult e-cigarette users; Week 8): -78.107 ng/mL
Saliva Cotinine Actual Value, Mean (adult e-cigarette users; Week 9): 121.622 ng/mL
Saliva Cotinine Actual Value, Median (adult e-cigarette users; Week 9): 2.030 ng/mL
Saliva Cotinine Change from Baseline, Mean (adult e-cigarette users; Week 9): -202.849 ng/mL
Saliva Cotinine Change from Baseline, Median (adult e-cigarette users; Week 9): -199.000 ng/mL
Saliva Cotinine Change from Baseline, LS Means (adult e-cigarette users; Week 9): -195.014 ng/mL
Saliva Cotinine Change from Baseline, LS Means Difference from Placebo (adult e-cigarette users; Week 9): -86.006 ng/mL
Saliva Cotinine Actual Value, Mean (adult e-cigarette users; Week 10): 127.718 ng/mL
Saliva Cotinine Actual Value, Median (adult e-cigarette users; Week 10): 4.100 ng/mL
Saliva Cotinine Change from Baseline, Mean (adult e-cigarette users; Week 10): -200.886 ng/mL
Saliva Cotinine Change from Baseline, Median (adult e-cigarette users; Week 10): -197.500 ng/mL
Saliva Cotinine Change from Baseline, LS Means (adult e-cigarette users; Week 10): -196.615 ng/mL
Saliva Cotinine Change from Baseline, LS Means Difference from Placebo (adult e-cigarette users; Week 10): -62.680 ng/mL
Saliva Cotinine Actual Value, Mean (adult e-cigarette users; Week 11): 137.834 ng/mL
Saliva Cotinine Actual Value, Median (adult e-cigarette users; Week 11): 10.900 ng/mL
Saliva Cotinine Change from Baseline, Mean (adult e-cigarette users; Week 11): -187.683 ng/mL
Saliva Cotinine Change from Baseline, Median (adult e-cigarette users; Week 11): -177.500 ng/mL
Saliva Cotinine Change from Baseline, LS Means (adult e-cigarette users; Week 11): -186.878 ng/mL
Saliva Cotinine Change from Baseline, LS Means Difference from Placebo (adult e-cigarette users; Week 11): -63.262 ng/mL
Saliva Cotinine Actual Value, Mean (adult e-cigarette users; Week 12): 157.889 ng/mL
Saliva Cotinine Actual Value, Median (adult e-cigarette users; Week 12): 36.550 ng/mL
Saliva Cotinine Change from Baseline, Mean (adult e-cigarette users; Week 12): -172.588 ng/mL
Saliva Cotinine Change from Baseline, Median (adult e-cigarette users; Week 12): -178.000 ng/mL
Saliva Cotinine Change from Baseline, LS Means (adult e-cigarette users; Week 12): -167.731 ng/mL
Saliva Cotinine Change from Baseline, LS Means Difference from Placebo (adult e-cigarette users; Week 12): -57.329 ng/mL
Saliva Cotinine Actual Value, Mean (adult e-cigarette users; Week 16): 181.742 ng/mL
Saliva Cotinine Actual Value, Median (adult e-cigarette users; Week 16): 140.000 ng/mL
Saliva Cotinine Change from Baseline, Mean (adult e-cigarette users; Week 16): -146.358 ng/mL
Saliva Cotinine Change from Baseline, Median (adult e-cigarette users; Week 16): -116.000 ng/mL
Saliva Cotinine Change from Baseline, LS Means (adult e-cigarette users; Week 16): -145.035 ng/mL
Saliva Cotinine Change from Baseline, LS Means Difference from Placebo (adult e-cigarette users; Week 16): -54.792 ng/mL
Quit Rate, End-of-Treatment Week 4 ([2]; cytisine 1.5 mg TID): 52%
Quit Rate, End-of-Treatment Week 4 [2, 3]: 51%
Quit Rate, End-of-Treatment Week 4 ([2]; cytisine 3.0 mg TID): 54%
Quit Rate, End-of-Treatment Week 4 [2, 4]: 54%
Quit Rate, End-of-Treatment Week 4 [2, 5]: 54%
Quit Rate, End-of-Treatment Week 4 [2, 6]: 50%
Serum cotinine levels ([2]; all cytisine-treated arms, Week 4): material reduction in cotinine levels
OR for initial quit rate at Week 4 versus placebo ([2]; cytisine 1.5 mg TID): 5.81
OR for prolonged abstinence Week 5 to Week 8 versus placebo ([2]; cytisine 1.5 mg TID): 4.33
Reduction in cigarettes smoked ([2]; cytisine 1.5 mg TID): 79%
OR for initial quit rate at Week 4 versus placebo ([2]; cytisine 1.5 mg, COM schedule): 5.59
OR for prolonged abstinence Week 5 to Week 8 versus placebo ([2]; cytisine 1.5 mg, COM schedule): 3.23
Reduction in cigarettes smoked [2, 3]: 80%
OR for initial quit rate at Week 4 versus placebo ([2]; cytisine 3.0 mg TID): 6.31
OR for prolonged abstinence Week 5 to Week 8 versus placebo ([2]; cytisine 3.0 mg TID): 5.04
Reduction in cigarettes smoked ([2]; cytisine 3.0 mg TID): 74%
OR for initial quit rate at Week 4 versus placebo [2, 5]: 6.3
OR for prolonged abstinence Week 5 to Week 8 versus placebo [2, 5]: 5.0
OR for initial quit rate at Week 4 versus placebo ([2]; cytisine 3.0 mg, COM schedule): 5.38
OR for prolonged abstinence Week 5 to Week 8 versus placebo ([2]; cytisine 3.0 mg, COM schedule): 2.24
Reduction in cigarettes smoked [2, 6]: 78%
Drug-placebo difference in quit rate ([2]; 4 weeks = end of treatment): 38.3%
Drug-placebo difference in quit rate ([2]; 4 weeks off treatment (Weeks 5-8)): 22.2%
Reduction in CO ([2]; cytisine 1.5 mg TID): 71%
Reduction in CO [2, 3]: 78%
Reduction in CO ([2]; cytisine 3.0 mg TID): 80%
Reduction in CO [2, 6]: 71%
Cigarette Score effect estimate (3.0 mg TID versus pooled placebo) ([2]; not weighted, diary start: Quit Day (8th day after start of intervention)): −11.8
Cigarette Score effect estimate (3.0 mg TID versus pooled placebo) ([2]; not weighted, diary start: start of intervention (primary outcome)): −9.5
Quit Rate, Continuous Abstinence Weeks 5 to 8 ([2]; cytisine 1.5 mg TID): 27%
Quit Rate, Continuous Abstinence Weeks 5 to 8 [2, 3]: 22%
Quit Rate, Continuous Abstinence Weeks 5 to 8 ([2]; cytisine 3.0 mg TID): 30%
Quit Rate, Continuous Abstinence Weeks 5 to 8 [2, 4]: 30%
Quit Rate, Continuous Abstinence Weeks 5 to 8 [2, 5]: 30%
Quit Rate, Continuous Abstinence Weeks 5 to 8 [2, 6]: 16%
Cigarette Score effect estimate (3.0 mg TID versus pooled placebo) ([2]; weighted analysis, diary start: Quit Day (8th day after start of intervention)): −15.0
Cigarette Score effect estimate (3.0 mg TID versus pooled placebo) ([2]; weighted analysis, diary start: start of intervention): −11.8
